Measurements as given in US20170119776A1, “CHIRAL 2,5-DISUBSTITUTED CYCLOPENTANECARBOXYLIC ACID DERIVATIVES AND USE THEREOF” (BAYER PHARMA AKTIENGESELLSCHAFT, priority 2014, published 2017).

The molecules below were run against T1, human macrophage elastase (HME/hMMP-12) (Homo sapiens, UniProt P39900) (assay: In vitro HME inhibition test (standard / high-sensitivity), without BSA). Conditions: absence of serum albumin (BSA).
T1 construct: 0.5 nM HME; purchased R&D Systems 917-MP
T1 sequence (P39900 106-470): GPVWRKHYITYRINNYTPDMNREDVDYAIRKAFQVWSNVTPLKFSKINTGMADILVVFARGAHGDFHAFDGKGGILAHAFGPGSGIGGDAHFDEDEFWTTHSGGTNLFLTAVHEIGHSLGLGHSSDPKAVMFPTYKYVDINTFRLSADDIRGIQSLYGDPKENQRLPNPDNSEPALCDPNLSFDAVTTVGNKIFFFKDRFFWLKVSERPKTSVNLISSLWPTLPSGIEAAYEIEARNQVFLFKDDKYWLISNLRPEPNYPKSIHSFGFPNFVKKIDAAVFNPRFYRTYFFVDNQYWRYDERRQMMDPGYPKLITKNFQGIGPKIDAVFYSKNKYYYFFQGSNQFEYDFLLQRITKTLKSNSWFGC
Format: biochemical
Text: The activity of the compounds according to the invention towards HME (MMP-12) is ascertained in an in vitro inhibition test. The HME-mediated amidolytic cleavage of a suitable peptide substrate leads herein to a fluorescent light increase. The signal intensity of the fluorescent light is directly proportional to the enzyme activity. The active concentration of a test compound at which half of the enzyme is inhibited (50% signal intensity of the fluorescent light) is given as IC50 value.
In a 384 hole microtiter plate, in a test volume of in total 41 μl of the test buffer (0.1 M HEPES pH 7.4, 0.15 M NaCl, 0.03 M CaCl2, 0.004 mM ZnCl2, […], 0.005% Brij®), the enzyme (0.5 nM HME; R&D Systems, 917-MP, autocatalytic activation according to the manufacturer's instructions) and the intramolecularly quenched substrate [5 μM Mca-Pro-Leu-Gly-Leu-Glu-Glu-Ala-Dap(Dnp)-NH2; Bachem, M-2670] are incubated in the absence and presence of the test substance (as solution in DMSO) for two hours at 37° C. The fluorescent light intensity of the test batches is measured (excitation 323 nm, emission 393 nm). The IC50 values are ascertained by plotting the fluorescent light intensity against the active ingredient concentration.
If subnanomolar IC values are produced for high potent test substances in the standard HME inhibition test described above, then a modified test is used for their more precise determination. Here, a ten-fold lower enzyme concentration is used (final concentration e.g. 0.05 nM), in order to achieve an increased sensitivity of the test. The incubation time of the test is accordingly chosen to be longer (e.g. 16 hours).
Table 1 below gives the IC50 values from these HME inhibition tests for the working examples of the present invention and also for two structurally related comparison compounds from the prior art (as racemate or separated enantiomers)→(sometimes as average values from several independent individual determinations and rounded to two significant places). The IC50 values were determined for racemates and enantiomers from differently generated DMSO stock solutions. Whereas an automatically created DMSO stock solution from the internal substance logistics was used for racemates by means of a standard method, for enantiomers and for a more precise direct comparison of the enantiomers with one another, in each case a freshly produced, manually prepared DMSO stock solution was used.
An IC50 of 66 nM was found for `O=C(O)[C@@H]1[C@@H](Cn2nnc3ccccc3c2=O)CC[C@H]1C(=O)c1ccc(-c2ccc(Cl)cc2)cc1` (single isomer, unassigned; enantiomer 1) [Comparative Example A-2, (1RS,2RS,5SR)-2-[(4′-chlorobiphenyl-4-yl)carbonyl]-5-[(4-oxo-1,2,3-benzotriazin-3(4H)-yl)methyl]cyclopentanecarboxylic acid (enantiomer 1)] in this work.
An IC50 of 160 nM was found for `CCCCCOc1ccc(C(=O)CC(CCn2nnc3ccccc3c2=O)C(=O)O)cc1` (single isomer, unassigned; enantiomer 2) [Comparative Example B-3, (−)-4-Oxo-2-[2-(4-oxo-1,2,3-benzotriazin-3(4H)-yl)ethyl]-4-[4-(pentyloxy)phenyl]butanoic acid (enantiomer 2)] in this work.
An IC50 of 14 nM was found for `O=C(O)[C@@H]1[C@@H](Cn2nnc3ccccc3c2=O)CC[C@H]1C(=O)c1ccc(OCc2ccccc2)cc1` [Example 3, (−)-(1R,2R,5S)-2-[4-(Benzyloxy)benzoyl]-5-[(4-oxo-1,2,3-benzotriazin-3(4H)-yl)methyl]cyclopentanecarboxylic acid] in this work.
